Results from patent US20260001886A1, “ENPP1 INHIBITORS I” (RE Ventures I, LLC, priority 2024, published 2026).
Read-outs that look alike come from different tables or passages of the source.

Experiments:
[1] = molecular target: T1, human CA-I (CA1) (Homo sapiens (Human), UniProt P00915); assay: biochemical
Description: (§1) Cytiva Biacore S200, T200 and 3000 machines were used for all SPR experiments. […] For carbonic anhydrases, data were collected at a constant temperature of 25° C. Human CA-I (CA1) or human CA-II (CA2) was captured via standard EDC/NHS protocol on a Biacore CM5 chip using standard protocols in HBS-N buffer (10 mM HEPES (pH 7.4), 150 mM NaCl) at ˜2000 RU. The experiments were run in PBS buffer containing 0.05% Tween 20 and 3% DMSO. All compounds were initially screened at concentrations ranging from 23 nM to 50 µM or 4.6 nM to 10 µM, injecting from the lowest to highest concentrations and adjusting appropriately for each compound for repeat experiments. Scrubber 2 (Biologic software) was used to process and analyse SPR data. […] Data for the inhibitors were referenced to those for a blank surface and blank injections to normalise for non-specific binding and drift. A DMSO calibration was run to remove excluded volume effect of binding responses between reference and target surface.

[2] = molecular target: T2, human CA-II (CA2) (Homo sapiens (Human), UniProt P00918); assay: biochemical
Description: as §1

[3] = molecular target: T3, Human ENPP1 (Homo sapiens (Human), UniProt P22413)
Description: (§2) ENPP1 catalyses the hydrolysis of ATP into AMP+PPi. AMP production was monitored using Bellbrooks Transcreener AMP/GMP TR-FRET assay kit (Cat No. 3020-10K) according to the manufacturer's instructions. The assay was run with 50 mM Tris pH 7.5, 5 mM MgCl2, 150 mM NaCl, 0.005% Tween20 and distilled H2O. Antibody and tracer were diluted to 2 nM. […] Mouse ENPP1 was run at 15 pM with ATP at 400 nM. AMP produced in the assay by ENPP1 activity competes with a far-red tracer labelled AMP bound to an AMP specific antibody resulting in a decrease in TR-FRET. ENPP1 inhibition reduces AMP production and increases the TR-FRET signal.

[4] = molecular target: ENPP1 expressed by MCF-7 cells (Homo sapiens (Human), UniProt P22413); assay: cell-based
Description: ENPP1 inhibition was assessed in a human cellular co-culture assay using THP1-Dual interferon reporter cells from InvivoGen (Cat No. thpd-nfis), see Goswami et al., 2022, and MCF-7 cancer cells.
MCF-7 cells were seeded at 10,000 cells/well in a 96 well plate and 24 h later compounds were added in DMEM+GlutaMAX media+2% Hyclone FBS, with a final DMSO of 0.2%. 2′3′-cGAMP was added at a final concentration of 10 μM and incubated for 30 mins at 37° C. 20,000 THP-1 cells were added per well and incubated for 48 h. IFN response was measured by Quanti-Luc Gold according to the manufacturer's instructions using 15 μL Quanti-Luc Gold per well. Luminescence was measured on an EnSight reader (PerkinElmer).

[5] = molecular target: T3, Human ENPP1; assay: biochemical
Description: as §2

[6] = molecular target: T1, human CA-I (CA1); assay: Surface plasmon resonance, carbonic anhydrase I; details: 25° C., CM5 chip
Description: as §1

[7] = molecular target: T2, human CA-II (CA2); assay: Surface plasmon resonance, carbonic anhydrase II; details: 25° C., CM5 chip
Description: as §1

[8] = system: Alpl^Prx1 mouse; assay: In vivo Model 1: Alpl^Prx1 mouse model of hypophosphatasia (HPP)
Description: Bone tissues were fixed in 4% PFA.
PPi levels were measured using a standard method involving ATPsulfurylase. […] ATP converted from PPi in the samples was mixed with BacTiter-Glo (Promega) and luminescence was quantified in duplicated reactions using a iD3X plate reader (Molecular Device). Values obtained from reactions without ATPsulfurylase were subtracted to eliminate ATP which possibly existed in the plasma samples.
Plasma chemistry was performed using Vetscan VS2 analyzer with Comprehensive Diagnostic Profiles rotor (Abaxis). […] Mouse OPN was measured with Quantikine®-ELISA kit (R&D).
Radiographic images were obtained by using XPERT 80-Kubtec Scientific.
Three stained sections per mouse were analyzed by Keyence microscope to obtain an average value of mineralized area. Five mice per genotype were used (n=5).

[9] = oral in diet, after 100 days of dosing

T1 sequence (P00915 whole entry): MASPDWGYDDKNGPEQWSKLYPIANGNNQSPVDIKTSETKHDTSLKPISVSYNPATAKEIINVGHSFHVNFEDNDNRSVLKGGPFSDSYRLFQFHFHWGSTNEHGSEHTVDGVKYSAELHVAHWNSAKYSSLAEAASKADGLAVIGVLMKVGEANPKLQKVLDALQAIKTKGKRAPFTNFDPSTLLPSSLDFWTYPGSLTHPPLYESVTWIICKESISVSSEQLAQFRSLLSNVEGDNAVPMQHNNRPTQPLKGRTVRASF
T3 sequence (P22413 whole entry): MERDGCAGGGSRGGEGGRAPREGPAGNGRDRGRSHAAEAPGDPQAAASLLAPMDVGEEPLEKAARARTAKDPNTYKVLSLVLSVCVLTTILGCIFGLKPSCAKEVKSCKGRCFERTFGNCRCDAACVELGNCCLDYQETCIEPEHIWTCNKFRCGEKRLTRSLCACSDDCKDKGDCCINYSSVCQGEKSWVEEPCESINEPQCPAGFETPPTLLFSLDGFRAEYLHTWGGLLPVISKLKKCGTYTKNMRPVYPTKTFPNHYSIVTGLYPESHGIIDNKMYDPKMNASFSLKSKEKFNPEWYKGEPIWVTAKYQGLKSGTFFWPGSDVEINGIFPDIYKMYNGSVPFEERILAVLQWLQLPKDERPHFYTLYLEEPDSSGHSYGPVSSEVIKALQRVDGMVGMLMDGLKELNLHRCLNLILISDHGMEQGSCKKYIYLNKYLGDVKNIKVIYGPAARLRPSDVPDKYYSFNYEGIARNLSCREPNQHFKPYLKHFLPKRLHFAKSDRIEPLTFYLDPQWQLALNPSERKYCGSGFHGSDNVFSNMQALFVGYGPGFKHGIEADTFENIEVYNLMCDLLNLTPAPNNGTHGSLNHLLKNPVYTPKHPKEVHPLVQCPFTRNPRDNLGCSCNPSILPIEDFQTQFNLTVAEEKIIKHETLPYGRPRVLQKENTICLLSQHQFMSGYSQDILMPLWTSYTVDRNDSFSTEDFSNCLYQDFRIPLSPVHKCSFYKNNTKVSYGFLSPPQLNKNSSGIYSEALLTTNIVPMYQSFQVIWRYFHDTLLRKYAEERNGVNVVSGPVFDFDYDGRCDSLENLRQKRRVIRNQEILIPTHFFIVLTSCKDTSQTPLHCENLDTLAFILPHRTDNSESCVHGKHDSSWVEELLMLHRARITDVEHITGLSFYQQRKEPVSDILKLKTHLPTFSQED
Chain of ENPP1 expressed by MCF-7 cells (P22413 whole entry): as above

SMILES | Kd [1] | Kd [2] | EC50 [3] | EC50 [4] | other results
Cc1cc(Cn2cc(C(C)C)c(=O)n3nc(C4CC4)nc23)ccc1[S@](C)(=N)=O (single isomer, unassigned) [Compound 65] | – | – | 0.00158 µM | 0.0398 µM | –
CC(C)c1cn(Cc2ccc(S(=N)(=O)C3CC3)cc2)c2nc(C3CC3)nn2c1=O (stereo not shown) [Compound 54, 4-(4-(Cyclopropanesulfonimidoyl)benzyl)-2-cyclopropyl-6-isopropyl-[1,2,4]triazolo[1,5-a]pyrimidin-7(4H)-one] | – | – | 0.00126 µM | 0.0398 µM | –
CC(C)c1cn(C[C@@H]2C[C@@H]3C[C@H]2CN3S(N)(=O)=O)c2ncnn2c1=O [Compound 37, (1R,4R,5R)-5-((6-isopropyl-7-oxo-[1,2,4]triazolo[1,5-a]pyrimidin-4(7H)-yl)methyl)-2-azabicyclo[2.2.1]heptane-2-sulfonamide] | > 100000 µM | – | – | – | –
Cc1cc(Cn2cc(C(C)C)c(=O)n3nc(C4CC4)cc23)ccc1S(C)(=N)=O (racemic) [58 Rac] | > 100000 µM | – | – | – | EC50 [5]: 0.002 µM
CC(C)c1cn(Cc2ccc([S@@](=N)(=O)C3CC3)cc2)c2nc(C3CC3)nn2c1=O (single isomer, unassigned) [Compound 55] | – | – | 0.000316 µM | 0.0251 µM | –
CC(C)c1nc2n(Cc3ccc(S(C)(=N)=O)cc3)cc(C(C)C)c(=O)n2n1 (stereo not shown) [Compound 30, 2,6-diisopropyl-4-(4-(S-methylsulfonimidoyl)benzyl)-[1,2,4]triazolo[1,5-a]pyrimidin-7(4H)-one] | – | – | 0.00398 µM | 0.0794 µM | CA1 human SPR pKD [6]: <1; CA2 human SPR pKD [7]: <1
CNc1nc(S(N)(=O)=O)ccc1Cn1cc(C(C)C)c(=O)n2nc(C3CC3)nc12 [Compound 29, 5-((2-cyclopropyl-6-isopropyl-7-oxo-[1,2,4]triazolo[1,5-a]pyrimidin-4(7H)-yl)methyl)-6-(methylamino)pyridine-2-sulfonamide] | – | 31.6 µM | – | – | –
CCS(=N)(=O)c1ccc(Cn2cc(C(C)C)c(=O)n3nc(C4CC4)nc23)cc1 (racemic) [56 Rac] | – | 31.6 µM | – | – | EC50 [5]: 0.00251 µM
CC(C)c1cn(Cc2ccc(S(C)(=N)=O)cc2)c2nc(CC(F)(F)F)nn2c1=O (racemic) [32 Rac] | > 100000 µM | > 100000 µM | – | – | EC50 [5]: 0.00794 µM
CC(C)c1cn(C[C@H]2C[C@H]3C[C@@H]2CN3S(N)(=O)=O)c2nc(C(F)(F)F)nn2c1=O (racemic) [Compound 36, rac-(1R,4R,5R)-5-((6-isopropyl-7-oxo-2-(trifluoromethyl)-[1,2,4]triazolo[1,5-a]pyrimidin-4(7H)-yl)methyl)-2-azabicyclo[2.2.1]heptane-2-sulfonamide] | > 100000 µM | – | – | – | –
CC(C)c1cn(Cc2ccc(S(N)(=O)=O)c(-c3ccccc3)n2)c2nc(C3CC3)nn2c1=O [Compound 27, 6-((2-cyclopropyl-6-isopropyl-7-oxo-[1,2,4]triazolo[1,5-a]pyrimidin-4(7H)-yl)methyl)-2-phenylpyridine-3-sulfonamide] | – | – | 0.00631 µM | 0.251 µM | CA1 human SPR pKD [6]: 3.0; CA2 human SPR pKD [7]: 3.0
CC(C)c1cn(Cc2ccc([S@](C)(=N)=O)c(F)c2)c2cc(C3CC3)nn2c1=O (single isomer, unassigned) [Compound 72] | – | – | 0.00251 µM | 0.2 µM | –
CC(C)c1cn(Cc2c(F)cc(S(C)(=N)=O)cc2F)c2nc(C3CC3)nn2c1=O (stereo not shown) [Compound 26, 2-cyclopropyl-4-(2,6-difluoro-4-(S-methylsulfonimidoyl)benzyl)-6-isopropyl-[1,2,4]triazolo[1,5-a]pyrimidin-7(4H)-one] | – | – | 0.0126 µM | – | CA1 human SPR pKD [6]: 3.0; CA2 human SPR pKD [7]: 3.0
COc1c(C2CC2)nn2c(=O)c(C(C)C)cn(C[C@H]3C[C@H]4C[C@@H]3CN4S(N)(=O)=O)c12 [Compound 44, (1S,4S,5S)-5-((2-Cyclopropyl-6-isopropyl-3-methoxy-7-oxopyrazolo[1,5-a]pyrimidin-4(7H)-yl)methyl)-2-azabicyclo[2.2.1]heptane-2-sulfonamide] | – | – | 0.00501 µM | – | CA1 human SPR pKD [6]: 3.0; CA2 human SPR pKD [7]: 4.2
Cc1cc2n(Cc3ccc(S(C)(=N)=O)cc3)cc(C(C)C)c(=O)n2n1 (racemic) [9 Rac] | > 100000 µM | > 100000 µM | – | – | –
CCc1nc2n(Cc3ccc(S(C)(=N)=O)cc3)cc(C(C)C)c(=O)n2n1 (racemic) [31 Rac] | > 100000 µM | > 100000 µM | – | – | –
Cc1cc(S(C)(=N)=O)ccc1Cn1cc(C(C)C)c(=O)n2nc(C3CC3)cc12 (stereo not shown) [Compound 61, 2-Cyclopropyl-6-isopropyl-4-(2-methyl-4-(S-methylsulfonimidoyl)benzyl)pyrazolo[1,5-a]pyrimidin-7(4H)-one] | – | – | 0.00398 µM | – | CA1 human SPR pKD [6]: 3.0; CA2 human SPR pKD [7]: 3.8
CC(C)c1cn(Cc2ccc(S(C)(=N)=O)cc2)c2cc(C3CC3)nn2c1=O (racemic) [3 Rac] | – | > 100000 µM | – | – | –
Cc1nc2n(C[C@H]3C[C@H]4C[C@@H]3CN4S(N)(=O)=O)cc(-c3cccc(F)c3)c(=O)n2n1 [Compound 6, (1S,4S,5S)-5-((6-(3-fluorophenyl)-2-methyl-7-oxo-[1,2,4]triazolo[1,5-a]pyrimidin-4(7H)-yl)methyl)-2-azabicyclo[2.2.1]heptane-2-sulfonamide] | – | – | 0.1 µM | – | CA1 human SPR pKD [6]: 3.0; CA2 human SPR pKD [7]: 3.6
CC(C)c1cn(Cc2ccc(S(N)(=O)=O)cc2)c2nc(C3CC3)nn2c1=O [Compound 11, 4-((2-cyclopropyl-6-isopropyl-7-oxo-[1,2,4]triazolo[1,5-a]pyrimidin-4(7H)-yl)methyl)benzenesulfonamide] | – | – | – | – | Bone mineralization of the bone cortex (X-ray, tibia / knee joints) ([8]; male and female mice, oral in diet, 100 days): increased bone mineralization; Plasma chemistry (significant changes; transaminase, amylase, BUN, Ca) ([8]; male mice, WT, control and treated): only observed between WT and HPP mice; Mineralization of L3 vertebrate bone (bone morphometry, Von Kossa) ([8]; oral in diet, 100 days): increased to the levels of wild-type mice; Mineralization of trabecular bones of the distal femur (bone morphometry, Von Kossa) ([8]; oral in diet, 100 days): slight improvement in mineralization; Plasma AP levels [8, 9]: did not affect; Plasma OPN levels [8, 9]: did not affect; Plasma PPi levels [8, 9]: reduced to the levels of WT mice
Cc1cc(Cn2cc(C(C)C)c(=O)n3nc(C4CC4)nc23)ccc1S(C)(=N)=O (stereo not shown) [Compound 71, 2-Cyclopropyl-6-isopropyl-4-(3-methyl-4-(S-methylsulfonimidoyl)benzyl)-[1,2,4]triazolo[1,5-a]pyrimidin-7(4H)-one] | – | – | 0.00316 µM | 0.251 µM | –

Second part, led by results:

Kd [1] | Kd [2] | EC50 [3] | EC50 [4] | SMILES | other results
> 100000 µM | > 100000 µM | – | – | CCc1nc2n(Cc3ccc([S@@](C)(=N)=O)cc3)cc(C(C)C)c(=O)n2n1 (single isomer, unassigned) [Compound 31A] | –
– | – | 0.00126 µM | 0.2 µM | Cc1cc(Cn2cc(C(C)C)c(=O)n3nc(C4CC4)cc23)ccc1[S@@](C)(=N)=O (single isomer, unassigned) [Compound 58A] | –
> 100000 µM | > 100000 µM | – | 0.0794 µM | CC(C)c1cn(Cc2ccc(S(C)(=N)=O)cc2)c2nc(CC(F)(F)F)nn2c1=O (single isomer, unassigned) [Compound 32A] | EC50 [5]: 0.00631 µM
> 100000 µM | > 100000 µM | – | – | CC(C)c1cn(Cc2ccc([S@@](C)(=N)=O)cc2)c2nc(CC(F)(F)F)nn2c1=O (single isomer, unassigned) [Compound 32B] | –
– | – | 0.001 µM | 0.0398 µM | CC[S@](=N)(=O)c1ccc(Cn2cc(C(C)C)c(=O)n3nc(C4CC4)nc23)cc1 (single isomer, unassigned) [Compound 56A] | –
> 100000 µM | > 100000 µM | – | – | CCc1nc2n(Cc3ccc([S@](C)(=N)=O)cc3)cc(C(C)C)c(=O)n2n1 (single isomer, unassigned) [Compound 31B] | –
> 100000 µM | > 100000 µM | – | – | Cc1cc2n(Cc3ccc(S(C)(=N)=O)cc3)cc(C(C)C)c(=O)n2n1 (single isomer, unassigned) [Compound 9A] | –
– | > 100000 µM | – | – | CC(C)c1cn(Cc2ccc([S@](C)(=N)=O)cc2)c2cc(C3CC3)nn2c1=O (single isomer, unassigned) [Compound 3A] | –
– | > 100000 µM | – | – | CC(C)c1cn(Cc2ccc([S@@](C)(=N)=O)cc2)c2cc(C3CC3)nn2c1=O (single isomer, unassigned) [Compound 3B] | –
